Experimental data taken from PMC10743086, “Immunofluorescence-Based Assay for High-Throughput Analysis of Multidrug Resistance Markers in Non-Small Cell Lung Carcinoma Patient-Derived Cells” (Diagnostics, 2023).

Tests used:
Type in all cases: cell-based, human
[1] = tested on: NCI-H460/R cells; assay: Cytotoxicity by immunofluorescence cell scoring (cell counts), multidrug-resistant NSCLC cell line; conditions: Homo sapiens, 24 h treatment
Description: Human non-small cell lung carcinoma cells (NCI-H460) were purchased from the American Type Culture Collection (Rockville, MD, USA), and normal embryonic lung fibroblasts (MRC-5) were purchased from the European Collection of Authenticated Cell Cultures (Salisbury, UK). Multidrug-resistant NCI-H460/R cells overexpressing ABCB1 were selected from the NCI-H460 cells after selective pressure with doxorubicin [21]. All the cell lines were maintained in MEM medium (Sigma-Aldrich Chemie GmbH, Taufkirchen, Germany) supplemented with 10% FBS, 2 mM L-glutamine, and antibiotic-antimycotic solution. All the cell lines were maintained at 37 °C in a humidified atmosphere with 5% CO2.
(§1) Vinorelbine and pemetrexed were purchased from Selleckchem (Houston, TX, USA). Carboplatin, cisplatin, docetaxel, etoposide, gemcitabine, gefitinib, and paclitaxel were purchased from Sigma-Aldrich Chemie GmbH (Taufkirchen, Germany). The cisplatin, carboplatin, and gemcitabine were dissolved in sterile water, while the etoposide, docetaxel, vinorelbine, paclitaxel, gefitinib, and pemetrexed were dissolved in DMSO and stored at −20 °C. Before treatment, all the stock solutions were freshly diluted in sterile water.
(§2) The compounds were administered 48 h after seeding. The treatment lasted 24 h.
(§3) The immunofluorescence assay for the quantification of MDR markers was optimized to distinguish cancer cells from stromal cells using a cytokeratin 8/18 (CK8/18) antibody cocktail. The cells were fixed with 4% paraformaldehyde for 20 min at RT and washed three times with PBS using the Wellwash Versa microplate washer (Thermo Fisher Scientific, Waltham, MA, USA). The cells were then blocked with 2% bovine serum albumin (BSA) in PBS for 1 h at RT. […] Co-immunostaining with antibodies against MDR markers was performed to detect the presence of ABCB1, ABCC1, and ABCG2 in both the cancer and stromal cells. […] The secondary antibodies were incubated with the cells at RT for 2 h in the dark. […] Finally, the cells were washed three times with PBS and stored at 4 °C in the dark before imaging.
(§4) The fluorescently labeled cells were imaged using the ImageXpress Pico Automated Cell Imaging System (Molecular Devices, San Jose, CA, USA) with a 4x objective after determining the appropriate exposure time for each illumination filter. Analysis of the obtained images was performed using CellReporterXpress software v. 2.8.2.669 (Molecular Devices). The cytotoxicity of the compounds was determined using the Cell Scoring Analysis Protocol. […] Expression of MDR markers was determined using the Multi-Wavelength Cell Scoring Analysis Protocol.

[2] = tested on: ABCB1 expression in MRC-5 cells; assay: Immunofluorescence assay of MDR marker ABCB1 expression; conditions: five concentrations, 24 h
Method: as §1, §2, §3, §4

[3] = tested on: ABCB1 expression in NCI-H460 cells; assay: as above; conditions: five concentrations, 24 h
Method: as §1, §2, §3, §4

[4] = tested on: ABCB1 expression in NCI-H460/R cells; assay: as above; conditions: five concentrations, 24 h
Method: as §1, §2, §3, §4

[5] = tested on: Cancer cells (CK8/18+) of patient-derived NSCLC cultures; assay: Cytotoxicity in patient-derived NSCLC cultures, cancer cells; conditions: Homo sapiens, 168 h, 7 days treatment
Method: (§5) Tissue samples were collected during surgery, and the NSCLC diagnosis, histological grade, stage, necrosis, and lymph node invasion status were determined by histopathological analysis. […] The surgical specimens were placed in a sterile tube containing antibiotic-antimycotic solution (Sigma-Aldrich Chemie GmbH, Taufkirchen, Germany) and immediately transported to the research laboratory for further processing.
(§6) Upon arrival, the tissue was manually chopped with a surgical blade in a Petri dish under sterile conditions. The samples were cut into 3–5 mm pieces and further dissociated using the Tumor Dissociation Kit (Miltenyi Biotec, Bergisch Gladbach, Germany). The Tumor Dissociation Kit was used to dissociate the cells from the tumor tissue according to the manufacturer’s instructions. The samples were incubated in a 37 °C orbital shaker (KS 4000 ic control, IKA, Königswinter, Germany) at 300 rpm for 90 min. After incubation, the dissociated tissue was placed in DMEM/Ham’s F12 (1:3 ratio) growth medium supplemented with 5% fetal bovine serum (Corning, NY, USA), antibiotic-antimycotic solution, 4 µg/mL hydrocortisone (Sigma-Aldrich Chemie GmbH, Taufkirchen, Germany), 1 µg/mL insulin (Sigma-Aldrich Chemie GmbH, Taufkirchen, Germany), 10 ng/mL epidermal growth factor (BioLegend, San Diego, CA, USA), and 24 µg/mL adenine (Sigma-Aldrich Chemie GmbH, Taufkirchen, Germany). The DMEM and Ham’s F12 growth media were purchased from Sigma-Aldrich Chemie GmbH (Taufkirchen, Germany).
(§7) The dissociated tissue was cultured in T-25 cell culture flasks until cell attachment was observed before the medium was replaced. If no cell attachment was achieved within 7 days, the sample was discarded. Successful patient-derived cultures were maintained at 37 °C in a humidified atmosphere with 5% CO2 and grown to confluence before undergoing further experiments. […] Partial trypsinization was performed by detaching the fibroblast-like cells with 1 mL of 0.05% trypsin for 1 min at 37 °C, followed by 2 min at room temperature (RT).
as §1
(§8) The primary cells were seeded in black, clear bottom 384-well cell culture microplates (Thermo Fisher Scientific, Waltham, MA, USA) in 50 µL of cell growth medium at a density of 1000 cells per well. The compounds were administered 72 h after seeding. The treatment lasted 7 days.
as §3

[6] = tested on: Non-cancer cells (CK8/18-) of patient-derived NSCLC cultures; assay: Cytotoxicity in patient-derived NSCLC cultures, non-cancer cells; conditions: Homo sapiens, 168 h, 7 days treatment
Method: as §5, §6, §7, §1, §8, §3

[7] = tested on: ABCB1 expression in cancer cells (CK8/18+); assay: Immunofluorescence assay of ABCB1 expression in patient-derived NSCLC cultures; conditions: 7 days
Method: as §5, §6, §7, §1, §8, §3

[8] = tested on: ABCC1 expression in cancer cells (CK8/18+); assay: Immunofluorescence assay of ABCC1 expression in patient-derived NSCLC cultures; conditions: 7 days
Method: as §5, §6, §7, §1, §8, §3

[9] = NCI-H460/R (co-culture with MRC-5)
[10] = MRC-5 (co-culture with NCI-H460)
[11] = MRC-5 (co-culture with NCI-H460/R)
[12] = NCI-H460 (co-culture with MRC-5)
[13] = culture TR58, cancer cells (CK8/18+)
[14] = culture TR64, cancer cells (CK8/18+)
[15] = culture TR65, cancer cells (CK8/18+)
[16] = culture TR84, cancer cells (CK8/18+)
[17] = culture TR87, cancer cells (CK8/18+)
[18] = culture TR58, non-cancer cells (CK8/18-)
[19] = culture TR64, non-cancer cells (CK8/18-)
[20] = culture TR65, non-cancer cells (CK8/18-)
[21] = culture TR84, non-cancer cells (CK8/18-)
[22] = culture TR87, non-cancer cells (CK8/18-)

Q: How did the IC50 [1, 9] turn out when `COc1cc([C@@H]2c3cc4c(cc3[C@@H](O[C@@H]3O[C@@H]5CO[C@@H](C)O[C@H]5[C@H](O)[C@H]3O)[C@H]3COC(=O)[C@H]23)OCO4)cc(OC)c1O` [Etoposide, etoposide] was run?
A: 7.5 µM

Q: What about the IC50 ([1]; NCI-H460/R monoculture) of the same molecule?
A: 7.92 µM

Q: What about the “ABCB1 Expression” value [2, 10] of the same molecule?
A: no change

Q: What about the “ABCB1 Expression” value [2, 11] of the same molecule?
A: no change

Q: And the “ABCB1 Expression” value ([2]; MRC-5 monoculture)?
A: no change

Q: What about the “ABCB1 Expression” value [3, 12] of the same molecule?
A: increase (An increase in ABCB1 expression of at least 20% at a minimum of one concentration is shown in the table.)

Q: And the “ABCB1 Expression” value ([3]; NCI-H460 monoculture)?
A: increase (An increase in ABCB1 expression of at least 20% at a minimum of one concentration is shown in the table.)

Q: What about the “ABCB1 Expression” value [4, 9] of the same molecule?
A: no change

Q: And the “ABCB1 Expression” value ([4]; NCI-H460/R monoculture)?
A: no change

Q: And the IC50 [5, 13]?
A: 7.13 µM

Q: And the IC50 [5, 14]?
A: 11.9 µM

Q: And the IC50 [5, 15]?
A: 25.4 µM

Q: What about the IC50 [5, 16] of the same molecule?
A: 2.98 µM

Q: And the IC50 [5, 17]?
A: 13 µM

Q: And the IC50 [6, 18]?
A: 6.49 µM

Q: What about the IC50 [6, 19] of the same molecule?
A: 18.1 µM

Q: What about the IC50 [6, 20] of the same molecule?
A: 2.08 µM

Q: And the IC50 [6, 21]?
A: 1.01 µM

Q: And the IC50 [6, 22]?
A: 10.2 µM

Q: What about the ABCB1 Expression [7, 13] of the same molecule?
A: no change

Q: And the ABCB1 Expression [7, 14]?
A: increase (An increase in ABCB1, ABCC1, or ABCG2 expression of at least 20% at a minimum of one concentration is shown in the table.)

Q: And the ABCB1 Expression [7, 15]?
A: increase (An increase in ABCB1, ABCC1, or ABCG2 expression of at least 20% at a minimum of one concentration is shown in the table.)

Q: What about the ABCB1 Expression [7, 16] of the same molecule?
A: increase (An increase in ABCB1, ABCC1, or ABCG2 expression of at least 20% at a minimum of one concentration is shown in the table.)

Q: What about the ABCB1 Expression [7, 17] of the same molecule?
A: increase (An increase in ABCB1, ABCC1, or ABCG2 expression of at least 20% at a minimum of one concentration is shown in the table.)

Q: What about the ABCC1 expression [8, 13] of the same molecule?
A: no change

Q: What about the ABCC1 expression [8, 14] of the same molecule?
A: increase (An increase in ABCB1, ABCC1, or ABCG2 expression of at least 20% at a minimum of one concentration is shown in the table.)

Q: What about the ABCC1 expression [8, 15] of the same molecule?
A: increase (An increase in ABCB1, ABCC1, or ABCG2 expression of at least 20% at a minimum of one concentration is shown in the table.)

Q: What about the ABCC1 expression [8, 16] of the same molecule?
A: increase (An increase in ABCB1, ABCC1, or ABCG2 expression of at least 20% at a minimum of one concentration is shown in the table.)

Q: And the ABCC1 expression [8, 17]?
A: increase (An increase in ABCB1, ABCC1, or ABCG2 expression of at least 20% at a minimum of one concentration is shown in the table.)

Q: `Nc1ccn([C@@H]2O[C@H](CO)[C@@H](O)C2(F)F)c(=O)n1` [Gemcitabine, gemcitabine] was tested. Which IC50 [1, 9] did it give?
A: 29.4 µM

Q: What about the IC50 ([1]; NCI-H460/R monoculture) of the same molecule?
A: 33.6 µM

Q: What about the “ABCB1 Expression” value [2, 10] of the same molecule?
A: no change

Q: What about the “ABCB1 Expression” value [2, 11] of the same molecule?
A: no change

Q: What about the “ABCB1 Expression” value ([2]; MRC-5 monoculture) of the same molecule?
A: no change

Q: What about the “ABCB1 Expression” value [3, 12] of the same molecule?
A: no change

Q: And the “ABCB1 Expression” value ([3]; NCI-H460 monoculture)?
A: no change

Q: What about the “ABCB1 Expression” value [4, 9] of the same molecule?
A: no change

Q: What about the “ABCB1 Expression” value ([4]; NCI-H460/R monoculture) of the same molecule?
A: no change

Q: And the IC50 [5, 13]?
A: 2.55 µM

Q: What about the IC50 [5, 14] of the same molecule?
A: 4.92 µM

Q: And the IC50 [5, 15]?
A: 4.91 µM

Q: What about the IC50 [5, 16] of the same molecule?
A: 2.68 µM

Q: And the IC50 [5, 17]?
A: 3.41 µM

Q: And the IC50 [6, 18]?
A: 3.07 µM

Q: And the IC50 [6, 19]?
A: 7.06 µM

Q: What about the IC50 [6, 20] of the same molecule?
A: 0.351 µM

Q: And the IC50 [6, 21]?
A: 0.491 µM

Q: What about the IC50 [6, 22] of the same molecule?
A: 1.13 µM

Q: And the ABCB1 Expression [7, 13]?
A: no change

Q: What about the ABCB1 Expression [7, 14] of the same molecule?
A: increase (An increase in ABCB1, ABCC1, or ABCG2 expression of at least 20% at a minimum of one concentration is shown in the table.)

Q: And the ABCB1 Expression [7, 15]?
A: increase (An increase in ABCB1, ABCC1, or ABCG2 expression of at least 20% at a minimum of one concentration is shown in the table.)

Q: What about the ABCB1 Expression [7, 16] of the same molecule?
A: increase (An increase in ABCB1, ABCC1, or ABCG2 expression of at least 20% at a minimum of one concentration is shown in the table.)

Q: And the ABCB1 Expression [7, 17]?
A: increase (An increase in ABCB1, ABCC1, or ABCG2 expression of at least 20% at a minimum of one concentration is shown in the table.)

Q: And the ABCC1 expression [8, 13]?
A: no change

Q: What about the ABCC1 expression [8, 14] of the same molecule?
A: increase (An increase in ABCB1, ABCC1, or ABCG2 expression of at least 20% at a minimum of one concentration is shown in the table.)

Q: And the ABCC1 expression [8, 15]?
A: increase (An increase in ABCB1, ABCC1, or ABCG2 expression of at least 20% at a minimum of one concentration is shown in the table.)

Q: What about the ABCC1 expression [8, 16] of the same molecule?
A: increase (An increase in ABCB1, ABCC1, or ABCG2 expression of at least 20% at a minimum of one concentration is shown in the table.)

Q: What about the ABCC1 expression [8, 17] of the same molecule?
A: increase (An increase in ABCB1, ABCC1, or ABCG2 expression of at least 20% at a minimum of one concentration is shown in the table.)
